The text below walks through data of publication PMC2813186 (Biochemistry, 2009).

Ends that are not written are not given here.

The target of data set [1] is T1, Prep (Mus musculus, UniProt Q9QUR6). Briefly: Prep inhibition with CGRP. The class given is biochemical.
Data set [2] relates to Prep. Description: CNS tissue. The conditions noted are these: WT mice (C57BL/6), up to 4 hours.
In the next data set the test system is recombinant Prep. Description: recombinant Prep. The following applies: mouse, 25°C, up to 60 minutes.
Data set [3] concerns the target T1, Prep. Briefly: label-free LC-MS peptidomics of CNS tissues, S17092 versus vehicle treated mice. The class given is in vivo. The conditions noted are these: S17092 30 mg/kg i.p.

T1 sequence (Q9QUR6 whole entry): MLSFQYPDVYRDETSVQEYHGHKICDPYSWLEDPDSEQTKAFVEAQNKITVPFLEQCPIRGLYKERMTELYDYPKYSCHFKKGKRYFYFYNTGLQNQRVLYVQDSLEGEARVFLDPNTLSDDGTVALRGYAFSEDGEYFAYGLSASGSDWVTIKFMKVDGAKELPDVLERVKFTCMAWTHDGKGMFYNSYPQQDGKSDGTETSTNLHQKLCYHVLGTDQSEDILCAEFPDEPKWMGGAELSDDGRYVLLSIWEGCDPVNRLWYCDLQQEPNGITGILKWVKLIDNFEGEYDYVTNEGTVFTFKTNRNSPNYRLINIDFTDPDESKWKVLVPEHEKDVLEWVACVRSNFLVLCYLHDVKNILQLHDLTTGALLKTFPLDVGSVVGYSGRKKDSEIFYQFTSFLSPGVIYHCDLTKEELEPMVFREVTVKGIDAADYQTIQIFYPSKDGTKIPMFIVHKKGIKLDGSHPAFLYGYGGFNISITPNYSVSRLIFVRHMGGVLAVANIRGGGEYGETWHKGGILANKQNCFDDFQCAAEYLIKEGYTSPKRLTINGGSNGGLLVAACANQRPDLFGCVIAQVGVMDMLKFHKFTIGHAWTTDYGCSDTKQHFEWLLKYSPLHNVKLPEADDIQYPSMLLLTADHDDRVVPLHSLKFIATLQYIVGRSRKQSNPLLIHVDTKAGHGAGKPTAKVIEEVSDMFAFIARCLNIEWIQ

For `CC(C)C[C@H](NC(=O)CNC(=O)[C@H](C)NC(=O)[C@H](CC(C)C)NC(=O)[C@H](CCCNC(=N)N)NC(=O)[C@H](Cc1c[nH]cn1)NC(=O)[C@@H](NC(=O)[C@@H](NC(=O)[C@@H]1CSSC[C@H](NC(=O)[C@@H](N)CO)C(=O)N[C@@H](CC(N)=O)C(=O)N[C@@H]([C@@H](C)O)C(=O)N[C@@H](C)C(=O)N[C@@H]([C@@H](C)O)C(=O)N1)C(C)C)[C@@H](C)O)C(=O)N[C@@H](CC(C)C)C(=O)N[C@@H](CO)C(=O)N[C@@H](CCCNC(=N)N)C(=O)N[C@@H](CO)C(=O)NCC(=O)NCC(=O)N[C@H](C(=O)N[C@H](C(=O)N[C@@H](CCCCN)C(=O)N[C@@H](CC(=O)O)C(=O)N[C@@H](CC(N)=O)C(=O)N[C@@H](Cc1ccccc1)C(=O)N[C@H](C(=O)N1CCC[C@H]1C(=O)N[C@H](C(=O)N[C@@H](CC(N)=O)C(=O)N[C@H](C(=O)NCC(=O)N[C@@H](CO)C(=O)N[C@@H](CCC(=O)O)C(=O)N[C@@H](C)C(=O)N[C@@H](Cc1ccccc1)C(N)=O)C(C)C)[C@@H](C)O)C(C)C)C(C)C)C(C)C` [CGRP(1–37), calcitonin gene-related peptide], the half-maximal inhibitory concentration (IC50) on Prep [1] was 2 µM.
Turning to APPEPVPPPRAAPAPTHV, the fragment found result in the data set on Prep [2] is listed as “Vgf(490–502)”.
Regarding GGVVKDNFVPTNVGSEAF-NH2, in the data set with recombinant Prep, the fragment found entry is on record as “CGRP(30–37)”.
Turning to GGVVKDNFVPTNVGSEAF-NH2 [CGRP(20–37)], the “Levels of Prep substrates in the spinal cord 1 hour and 4 hours after i.p. S17092 administration” value on Prep [3] is “significantly elevated at 1 hour (gray bar) and 4 hours”.
For MDELYPMEPEEEANGGEILA, in the data set with Prep [2], the fragment found entry was “Penk(123–133)”.
